The subject of one test is Ube2K. The test is described as follows: Reaction of Ubl probes with ubiquitin E2 Ube2K. The settings on record: probe 15 μM, Ube2K 15 μM, 1 h, SDS-PAGE. The format is biochemical. On the procedure: Figure 1 Modification of ATG3 with GABARAP ABPs depends on LIR^ATG3. a. Characterization of GABARAP activity-based probes, 1 and 2, obtained by hydrazide-acylation. Deconvoluted mass-spectrum (ESI) of GABARAP(ΔG116)–NHNH α-chloroacetyl 1. Expected mass 13707 Da. Deconvoluted mass-spectrum (ESI) of GABARAP(ΔG116)–NHNH methyl-fumarate 2. Expected mass 13743 Da. b. […] The reaction was allowed to proceed for 1 h and was analyzed by SDS-PAGE and Coomassie Blue staining. c. ColabFold-predicted structure of the protein-complex of ATG3 and GABARAP. Side-chain atoms are shown for the predicted LIR motif in ATG3 (90–112). d. Reaction of 2 (15 μM) with ATG3 variants C1, C0, and ΔLIR (15 μM). ATG3 C1 contains only active-site cysteine C264. ATG3 C0 contains no cysteines. ATG3 ΔLIR lacks amino acids 95–111. Reaction was allowed to proceed for 1 h and was analyzed by SDS-PAGE and Coomassie Blue staining. […]
Farnung et al. Supplementary Information and monitored using LC-MS analysis. […]
SUMO-GABARAP/LC3A-Mxe GyrA-His6 fusion after Ni-NTA purification was dialyzed against intein cleavage buffer (25 mM HEPES, 500 mM NaCl, 1 mM EDTA pH 7.2 at 4 °C). […] The solution was allowed to stand at room temperature and monitored using LC-MS analysis. […]
Ubl probes (15 μM) were mixed with E2s (15 μM) in PBS. […] If required, gel bands were quantified by gel densitometry using ImageLab (Bio- […]

The next test concerns ATG3. Nature of the test: Reaction (cross-linking) of Ubl activity-based probes with recombinant ATG3 and variants. The format is biochemical, human. To be noted: probe 15 μM, SDS-PAGE. On the procedure:
Figure 1 Modification of ATG3 with GABARAP ABPs depends on LIR^ATG3. a. Characterization of GABARAP activity-based probes, 1 and 2, obtained by hydrazide-acylation. Deconvoluted mass-spectrum (ESI) of GABARAP(ΔG116)–NHNH α-chloroacetyl 1. Expected mass 13707 Da. Deconvoluted mass-spectrum (ESI) of GABARAP(ΔG116)–NHNH methyl-fumarate 2. Expected mass 13743 Da. b. […] The reaction was allowed to proceed for 1 h and was analyzed by SDS-PAGE and Coomassie Blue staining. c. ColabFold-predicted structure of the protein-complex of ATG3 and GABARAP. Side-chain atoms are shown for the predicted LIR motif in ATG3 (90–112). d. Reaction of 2 (15 μM) with ATG3 variants C1, C0, and ΔLIR (15 μM). ATG3 C1 contains only active-site cysteine C264. ATG3 C0 contains no cysteines. ATG3 ΔLIR lacks amino acids 95–111. Reaction was allowed to proceed for 1 h and was analyzed by SDS-PAGE and Coomassie Blue staining. Full-gel images for b and d are available in the Supplementary Information.
We were intrigued by the cross-linking efficiency of 2 with ATG3 and sought to investigate the origin of this efficiency by generating a C1 variant of ATG3 that only contains the catalytic cysteine 264 and a corresponding C0 variant containing no cysteines. […] In general, the affinity of E2s for their cognate Ubls are quite low, as the thioester transfer from the E1 to the E2 enzyme is facilitated by additional interactions from the UFD domain of the E1 enzyme.[23] […]
Upon completion the solution was dialyzed against 25 mM
HEPES, 200 mM NaCl pH 7.2 at 4 °C. Cleaved intein was removed using gravity Ni-NTA purification.
The flow-through was collected and combined with resin washes. The combined fractions were dialyzed and further purified using ion exchange.
3.3. Generation of GABARAP and LC3A hydrazides from SUMO-GABARAP/LC3A-Mxe GyrA-
SUMO-GABARAP/LC3A-Mxe GyrA-His6 fusion after Ni-NTA purification was dialyzed against intein cleavage buffer (25 mM HEPES, 500 mM NaCl, 1 mM EDTA pH 7.2 at 4 °C). After dialysis hydrazine monohydrate (75 mM) and MESNa (10 mM) was added and the pH adjusted to 7.8. The solution was allowed to stand at room temperature and monitored using LC-MS analysis. Upon completion the solution was dialyzed against 25 mM HEPES, 500 mM NaCl pH 7.2 at 4 °C. SENP1 (1 wt%) was added to cleave the SUMO-tag. The cleaved intein was removed using gravity Ni-NTA purification. […]
dialyzed and further purified using cation exchange using a buffer 25 mM Tris pH 8.0 and a gradient of […] in the same buffer over 25 column volumes. The product fractions were pooled, concentrated, and stored at –80 °C until further use.
3.4. Synthesis of symmetrical anhydrides
The carboxylic acid was dissolved in CH2Cl2 (300 mM) and dicyclohexylcarbodiimide (0.5 eqiv) was added in one portion. The reaction was stirred under N2 for 18 h. The suspension was filtered and concentrated to ~10% of the initial volume. The solution was placed at 4 °C for 1 h and filtered again.
The filtrate was concentrated to obtain the symmetrical anhydride which was used without further purification. Anhydrides can be stored at –20 °C for weeks.
3.5. Reaction of modified Ubl probes with E2s
Ubl probes (15 μM) were mixed with E2s (15 μM) in PBS. The mixture was incubated at 37 °C in a water bath for 0.5-3 h. The reaction was quenched by addition of 2x Laemmli buffer and boiled at 95 °C for 5 min. Samples were resolved by SDS-PAGE (8-16%, Bio-Rad) and visualized by […]
Coomassie staining. […]

Another test relates to ATG3 C1 alanine variants. Nature of the test: Alanine screen: cross-linking of probe 2 with ATG3 C1 alanine variants. The format is biochemical, human. The settings on record: probe 2 15 μM, PBS, 37 °C, 30 min, n = 2. On the procedure: Figure 4 Dissection of interactions between GABARAP and LIR^ATG3 by alanine scanning. GABARAP probe 2 (15 μM) was reacted with ATG3 C1 alanine variants (15 μM) for 30 min. Coomassie Blue stained SDS-PAGE gel showing modification of ATG3 C1 variants with GABARAP methyl fumarate. The indicated ATG3 residues were mutated to alanine. Cross-linking efficiency was estimated by gel densitometry and normalized to the reaction with ATG3 C1. Data are presented as average values ± s.d. n = 2 independent experiments. Full-gel images are available in the Supplementary Information.
Farnung et al. Supplementary Information
SDS-PAGE (8-16%, Bio-Rad) and visualized by Coomassie staining. Gel bands were quantified by gel densitometry using ImageLab (Bio-Rad).
ATG3 C1 (15 μM) was mixed with GABARAP methyl fumarate 2 (15 μM) in PBS, and the reaction mixture was incubated at 37 °C for 30 min. The reaction was quenched by addition of 2x Laemmli buffer and boiled at 95 °C for 5 min. Samples were resolved by SDS-PAGE (8-16%, Bio-Rad) and visualized by Coomassie staining. Gel bands were quantified by gel densitometry using ImageLab […]
3.9. Structure prediction […]
! ! ( )"% - ) ( $&, . "#*( *"&% % *! "#*( * &% %*( * +% ( ( + '( ))+( ! )&#+*"&%- )*("*+( * -"*! * % %*(" + *&& * "% (+ ' '*" ! […]

Results on 1 substance are retold here after PMC10214526, “Semisynthetic LC3 Probes for Autophagy Pathways Reveal a Noncanonical LC3 Interacting Region Motif Crucial for the Enzymatic Activity of Human ATG3” (ACS Central Science, 2023).

Turning to “GABARAP(ΔG116)–NHNH methyl-fumarate [compound 2]”, the “Reaction with Ube2K” value in the test on Ube2K is recorded as “did not react”. In addition, in the test on ATG3 (ATG3 15 μM, 1 h, Coomassie Blue), the “Reaction with ATG3 wt” value is “reacted with ATG3 efficiently leading to the formation of multiple ATG3–GABARAP bands”. The “Reaction with ATG3 C0” value with ATG3 (ATG3 C0 (no cysteines) 15 μM) is given as “no reaction was observed”. The “Reaction with ATG3 C1” value in the test on ATG3 (ATG3 C1 (only active-site C264) 15 μM) is listed as “excellent reactivity”. Also, in the test with ATG3 (ATG3 C1 ΔLIR (Δ95–111) 15 μM), the “Reaction with ATG3 ΔLIR” value is “no complex formation”. In addition, in the test with ATG3 (catalytically inactive ATG3 C264A 15 μM), the “Reaction with ATG3 C264A” value is listed as “loss of one ATG3–GABARAP band but did not abrogate additional bands for the complex”. In addition, the “Cross-linking with ATG3 D109 or T110 mutants” value in the test on ATG3 C1 alanine variants (D109 or T110 to alanine, ATG3 C1 variant 15 μM) is listed as “almost no effect on reaction efficiency”. In addition, in the test on ATG3 C1 alanine variants (E95 and I97 to alanine, ATG3 C1 variant 15 μM), the “Cross-linking with ATG3 E95 and I97 mutants” value is on record as “severely diminish cross-linking”. Also, in the test on ATG3 C1 alanine variants (V108A, ATG3 C1 variant 15 μM, relative to ATG3 C1), the “Cross-linking with ATG3 V108A” value is reported as “significantly reduced the cross-linking efficiency”. Also, the “Cross-linking with ATG3 W107 mutant” value in the test on ATG3 C1 alanine variants (W107A, ATG3 C1 variant 15 μM, relative to ATG3 C1) is “almost completely abrogated the reaction”. Moreover, the “Cross-linking with other ATG3 alanine mutants” value with ATG3 C1 alanine variants (majority of the other screened residues) is “at least some impact on the conjugation with GABARAP”.
